Results on 1 compound are retold here after patent publication US12065436B2, “Cardiac sarcomere inhibitors” (Cytokinetics, Inc., priority 2018, dated 2024).

Broadly, the IC50 is the concentration needed to halve the response being measured.

In assay [1] the test system is R403Q mice (alpha cardiac myosin heavy chain mutation, familial hypertrophic cardiomyopathy model). The experiment in a line: Longitudinal echocardiography in R403Q mouse model of HCM. Type of assay: in vivo. To be noted: compound formulated in chow for 24 weeks, echocardiography every 4 weeks, versus untreated R403Q mice. On the procedure:
Assessment over time of in vivo cardiac function by echocardiography was performed using a previously reported mouse model of familial hypertrophic cardiomyopathy, which was generated by an arginine to glutamine mutation at residue 403 (R403Q) of the alpha cardiac myosin heavy chain (MHC) gene (Geisterfer-Lowrance et al., Science. 1996 May 3; 272(5262):731-4). Cardiac dysfunction, fibrosis, and measures of cardiac hypertrophy (including ventricular wall thickness) increase with age in this mouse model (Geisterfer-Lowrance, supra; Jiang et al., Science. 2013, 342(6154):111-4).
R403Q mice received vehicle or Compound 142 formulated in chow for 24 weeks. Longitudinal echocardiography measurements were performed every 4 weeks. Echocardiography measurements were taken with mice under isoflurane (1-3%) anesthesia. 2-D M-mode images of the left ventricle were acquired in short-axis view. In vivo fractional shortening was determined by M-mode image analysis with the following calculation: ((End diastolic diameter−end systolic diameter)/end diastolic diameter×100).

The target in assay [2] is bovine cardiac myofibrils (full-length cardiac myosin ATPase in the native sarcomere) (Bos taurus (Bovine), UniProt Q9BE39). The experiment in a line: Skinned bovine cardiac myofibril ATPase assay (PK/LDH-coupled). It is filed as biochemical. The settings on record: Ca2+ activating to 75% of maximal rate. The gist of the method:
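Inhibition of steady-state ATPase read at 340 nm through a PK/LDH-coupled NADH system (0.5 mM NADH, 1.5 mM PEP). Detergent-skinned bovine cardiac myofibrils, 1 mg/mL, were tested at pH 6.8 in PIPES/MgCl2 with 50 μM ATP and calcium adjusted to give pCa50 or pCa75 activation.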

In assay [3] the test system is rat cardiac contractility (left ventricle fractional shortening). The experiment in a line: Echocardiography of acute effect on rat cardiac contractility, continuous IV infusion. Type of assay: in vivo, Sprague Dawley rats. The settings on record: Rattus norvegicus, plasma concentration at which fractional shortening is 50% of pre-dose baseline, estimated, read-out: IC50 (Mean ± S.D.). The gist of the method: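 Male Sprague Dawley rats under 1–3% isoflurane received compound in 50% PG/16% Captisol/10% DMA by jugular infusion at 1 mL/kg/h. Left-ventricle M-mode images were taken at baseline and every 5 min, with infusion stopped at up to 60% fall in fractional shortening. Plasma levels gave the estimated IC50, the concentration at which fractional shortening is 50% of baseline.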

Chain of bovine cardiac myofibrils (full-length cardiac myosin ATPase in the native sarcomere) (Q9BE39 whole entry): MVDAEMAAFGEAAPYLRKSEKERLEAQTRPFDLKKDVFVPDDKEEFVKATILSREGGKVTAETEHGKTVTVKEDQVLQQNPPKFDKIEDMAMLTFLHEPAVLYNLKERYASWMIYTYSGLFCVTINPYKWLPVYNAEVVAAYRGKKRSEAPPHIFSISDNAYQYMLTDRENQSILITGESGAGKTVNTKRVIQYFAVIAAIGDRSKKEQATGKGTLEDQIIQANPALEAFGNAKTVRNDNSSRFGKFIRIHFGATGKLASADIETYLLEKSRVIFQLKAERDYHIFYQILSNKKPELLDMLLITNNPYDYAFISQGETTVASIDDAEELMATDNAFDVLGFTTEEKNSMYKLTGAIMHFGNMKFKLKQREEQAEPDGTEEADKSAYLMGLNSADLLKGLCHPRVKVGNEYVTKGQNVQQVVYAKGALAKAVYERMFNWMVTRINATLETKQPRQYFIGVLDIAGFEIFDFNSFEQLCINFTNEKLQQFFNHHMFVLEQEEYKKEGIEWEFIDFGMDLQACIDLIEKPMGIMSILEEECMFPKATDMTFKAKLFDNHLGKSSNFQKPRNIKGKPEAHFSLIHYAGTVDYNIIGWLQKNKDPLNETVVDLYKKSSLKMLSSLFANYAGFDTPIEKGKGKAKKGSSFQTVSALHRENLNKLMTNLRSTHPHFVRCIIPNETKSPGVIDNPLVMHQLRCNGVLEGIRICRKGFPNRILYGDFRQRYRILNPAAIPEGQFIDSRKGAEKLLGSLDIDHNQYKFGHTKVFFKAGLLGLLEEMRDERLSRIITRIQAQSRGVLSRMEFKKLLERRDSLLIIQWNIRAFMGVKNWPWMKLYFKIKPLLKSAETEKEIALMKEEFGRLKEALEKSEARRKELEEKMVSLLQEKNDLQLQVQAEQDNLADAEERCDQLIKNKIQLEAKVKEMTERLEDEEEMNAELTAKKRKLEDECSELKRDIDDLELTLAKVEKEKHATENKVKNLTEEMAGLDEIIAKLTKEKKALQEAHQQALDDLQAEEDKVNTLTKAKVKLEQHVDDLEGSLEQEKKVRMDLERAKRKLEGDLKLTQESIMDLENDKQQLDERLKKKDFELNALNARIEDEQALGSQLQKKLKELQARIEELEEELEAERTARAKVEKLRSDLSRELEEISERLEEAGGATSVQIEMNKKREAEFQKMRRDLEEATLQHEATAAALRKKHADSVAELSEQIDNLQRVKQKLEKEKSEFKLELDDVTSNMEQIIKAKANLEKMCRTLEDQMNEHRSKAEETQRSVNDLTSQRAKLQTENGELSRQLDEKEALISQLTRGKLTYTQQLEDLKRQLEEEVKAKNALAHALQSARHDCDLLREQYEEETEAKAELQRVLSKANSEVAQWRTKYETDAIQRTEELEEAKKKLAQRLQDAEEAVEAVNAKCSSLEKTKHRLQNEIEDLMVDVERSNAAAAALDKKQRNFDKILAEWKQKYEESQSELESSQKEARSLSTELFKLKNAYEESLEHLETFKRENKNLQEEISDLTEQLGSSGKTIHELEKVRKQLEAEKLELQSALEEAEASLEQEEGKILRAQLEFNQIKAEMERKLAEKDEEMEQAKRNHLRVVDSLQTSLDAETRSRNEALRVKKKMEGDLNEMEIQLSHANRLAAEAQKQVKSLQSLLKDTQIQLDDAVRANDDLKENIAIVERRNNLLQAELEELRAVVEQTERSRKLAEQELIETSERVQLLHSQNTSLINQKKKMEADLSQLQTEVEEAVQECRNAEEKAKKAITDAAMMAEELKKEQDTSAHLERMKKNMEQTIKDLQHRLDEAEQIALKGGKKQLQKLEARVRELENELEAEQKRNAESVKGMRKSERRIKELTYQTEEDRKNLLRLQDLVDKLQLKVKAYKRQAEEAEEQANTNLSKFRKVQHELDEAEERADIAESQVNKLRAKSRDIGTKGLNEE
Chain of bovine cardiac myofibrils (full-length cardiac myosin ATPase in the native sarcomere) (P85100 whole entry partner): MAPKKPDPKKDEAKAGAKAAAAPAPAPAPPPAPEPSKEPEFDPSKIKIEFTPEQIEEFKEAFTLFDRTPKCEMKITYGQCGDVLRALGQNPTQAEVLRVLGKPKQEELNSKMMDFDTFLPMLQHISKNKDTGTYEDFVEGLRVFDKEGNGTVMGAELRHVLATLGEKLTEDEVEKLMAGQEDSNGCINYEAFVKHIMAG
Chain of bovine cardiac myofibrils (full-length cardiac myosin ATPase in the native sarcomere) (Q3SZE5 whole entry partner): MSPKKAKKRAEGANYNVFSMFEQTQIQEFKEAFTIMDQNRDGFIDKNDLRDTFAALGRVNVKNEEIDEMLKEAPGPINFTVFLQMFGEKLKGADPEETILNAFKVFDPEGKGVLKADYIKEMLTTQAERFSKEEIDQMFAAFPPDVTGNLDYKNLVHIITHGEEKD

Turning to `CC(C)c1nc(-c2ccc3c(c2)CC[C@H]3NC(=O)c2nnn(C)n2)no1` [Compound 142, (R)—N-(5-(5-isopropyl-1,2,4-oxadiazol-3-yl)-2,3-dihydro-1H-inden-1-yl)-2-methyl-2H-tetrazole-5-carboxamide], in assay [1], the “septal and left ventricular posterior wall thickness” value was “attenuated increases in septal and left ventricular posterior wall thickness”. In assay [2] (concentration giving 15% inhibition), the “CDMF75 IC15” value stood at 500 nM. Besides, the IC50 in assay [2] (read-out: CDMF75 IC50) was 2400 nM; in assay [3], 2700 ± 120 nM.
